Test results as given in article PMC11391541, “Target-Directed Dynamic Combinatorial Chemistry Affords Binders of Mycobacterium tuberculosis IspE” (ACS Omega, 2024).
Values after ≈ are worked out from the molar mass of the structure shown. Values joined by “and” are separate entries in the source; they are usually repeats but may differ in a detail not shown here. Equal entries are not always repeated.

Tests used:
MtbIspE [1] = molecular target: T1, MtbIspE (Mycobacterium tuberculosis, UniProt P9WKG7); assay: target-directed dynamic combinatorial chemistry (tdDCC), amplification of acylhydrazones in protein-templated vs blank DCL (HPLC-MS/MS, UV 310 nm); type: binding; settings: for Amplification factors (DCL-3): DCL-3, 24 h, I1 and K1 integrated as one cluster; for Amplification factors (DCL-3) / Amplification factors (DCL-4): 40 mol % MtbIspE; for Amplification factors (DCL-4): DCL-4, 24 h
T1 sequence (P9WKG7 whole entry): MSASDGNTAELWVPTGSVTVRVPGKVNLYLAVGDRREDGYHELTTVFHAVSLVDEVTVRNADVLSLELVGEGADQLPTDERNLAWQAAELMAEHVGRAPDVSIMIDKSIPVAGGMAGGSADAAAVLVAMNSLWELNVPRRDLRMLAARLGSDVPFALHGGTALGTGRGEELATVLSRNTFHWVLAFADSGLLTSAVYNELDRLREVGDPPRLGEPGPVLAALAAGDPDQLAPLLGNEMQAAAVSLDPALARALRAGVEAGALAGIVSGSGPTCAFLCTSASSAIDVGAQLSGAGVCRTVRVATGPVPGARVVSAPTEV
Protocol: In this study, we used MtbIspE as target protein and the reversible reaction of hydrazides and aldehydes to form dynamic combinatorial libraries (DCLs) of acylhydrazones. […] To accelerate the reaction at neutral pH, aniline was used as nucleophilic catalyst activating the aldehydes.[2],[4],[19] We analyzed the protein’s effect on the DCLs by comparing HPLC-MS/MS data of blank vs protein-templated (PT) experiments. The experiments spanned 3 days, with periodic sampling (every 2 h, followed by two samples per day after 8 h). The addition of NaOH to raise the pH and halt the reactions ensured the sample composition was preserved for analysis.[19] Templated experiments were conducted in duplicate, and the protein was denatured and removed prior to HPLC-MS/MS analysis.
The tdDCC hits and thus potential MtbIspE binders are amplified in the PT experiment compared to the blank experiment. The first step in the analysis of DCLs is the determination of the equilibrium since the amplification factors need to be calculated when the concentration of products is stable. To determine the evolution of the possible products, it is important to measure the characteristic UV absorbance of the acylhydrazones linker (310 nm) during the HPLC-MS/MS run. The resulting UV peaks are assigned to each product using the MS data (Figures S3–S6). The sum of all peak areas is normalized to 100% in order to obtain the respective relative peak area (RPA) for each product. The RPA values represent relative concentrations, determined at each time point of the blank experiment until the values stabilize. […] However, the rest of the compounds are out of range, making a visual inspection difficult. […] The other three libraries behaved in the same way, reaching equilibrium within 24 h and also maintained stable concentrations beyond (Figures S7–S9). To determine the tdDCC hits, we compared the RPAs of the PT experiments to the blanks at 24 h and set a threshold of at least 50% increase in compound formation. In total, 11 acylhydrazones passed our criteria, with amplification factors ranging from […] to 15.5, qualifying them for resynthesis and further evaluation (Figure 3). During the analysis of chromatograms, challenges arose concerning product identification. Some compound peaks were not neatly separated, forcing us to consider them in clusters, others presented two peaks, likely due to isomers, and were considered separately in our evaluation. Lastly, some compounds were detected by MS, but their respective UV signal interfered with the injection peak or was too low for integration (<1%), both in the blank and PT experiments. Consequently, we excluded these compounds from the analysis (Figure S3–S6).
To a well of a 24-well plate, containing Tris buffer (pH 7.0) were added hydrazides (300 μM each, in DMSO), aldehydes (100 μM each, in DMSO), aniline (20 mM, in DMSO), the protein MtbIspE (25 or 40 μM in Tris buffer at pH 7.0), and an additional amount of DMSO to reach a final concentration of 5% in the DCL with 0.5 mL of end-volume. The DCL was allowed to mix on a plate shaker at room temperature and was frequently monitored via LCMS-MS. For analysis, 30 μL of the corresponding library was mixed with 42 μL acetonitrile and 3 μL of NaOH (1 M), the mixture was centrifuged, and the supernatant was used for the analysis. PT experiments were run in duplicates and the protein was omitted for the blank experiments.
High-resolution mass (HRMS) of final products was determined by HPLC-MS/MS using a Thermo Scientific Q Exactive Focus Orbitrap LC -MS/MS system. All compounds were analyzed for purity by LCMS on Acquity UPLC-SQD system from Waters with a gradient elution of Water (Formic acid 0.1%)/Acetonitrile on an HSS - T3 column (2.1 x 50 mm, Waters), 1.8 µm, at 30°C, PDA detection between 240 -320 nm, and MS detection by simultaneous ES+/ES- ionization in a mass range of 150 -800. The flow is set to 0.9 ml/min, and the […]
gradient time is 1.5 min. […]

MtbH37Rv = type: cell-based, Mycobacterium tuberculosis
EcK12 = assay: E. coli growth inhibition, wild-type strain K12; type: cell-based, Escherichia coli; settings: Escherichia coli, 18 h, LB medium, read-out: EcK12 %inh. At 50 μM
EcTolC = assay: microbe, parasite or virus in culture; type: cell-based; settings: Escherichia coli, 18 h, LB medium, read-out: EcTolC %inh. At 50 μM
physchem = settings: aqueous with cosolvent or surfactant or cyclodextrin, kinetic from dmso stock
[2] = solubility in M. tuberculosis 7H9 growth medium; type: physicochemical; settings: Mtb 7H9 growth medium; for solubility: M. tuberculosis 7H9 growth medium, plasma or biological fluid, kinetic from dmso stock
Protocol: Prior to biological evaluation of the tdDCC hits, we tested their solubility in a standard buffer as well as in M. tuberculosis 7H9 growth medium. […] Regrettably, with 3.3 μM the least soluble compound is E1, making our most amplified and promising compound unsuitable for biological evaluation. We assessed the solubility in Mtb growth medium given that it is a complex, nutrient-rich environment with a distinct solubility profile. However, the trend continued, only seven hits are soluble at 8 μM or above, the remaining five compounds, including E1, were not eligible for antitubercular activity testing (Table 1).
Determination of in vitro anti-tubercular activity and solubility in 7H9 medium Anti-tubercular tests were performed as previously described .1 In brief, 7H9 complete medium (BD Difco; Becton Dickinson, Maryland,USA) supplemented with 10% OADC (BD), 0.2% glycerol, and 0.05% Tween80 as previously described ,3 was used to culture Mycobacterium tuberculosis (Mtb) strain H37Rv (ATCC 25618) carrying a mCherry -expressing plasmid (pCherry10 ).4 Cultures were harvested at mid-log phase and frozen in aliquots at – 80 °C. Prior to testing aliquots were thawed followed by centrifugation and the pellet was resuspended in 7H9 medium with 10% OADC (without glycerol and Tween80). This was further thoroughly resuspended by passing it through a syringe with a 26 -gauge needle to avoid clumping of the bacteria. 2×10^5 CFU (colony forming units) were then cultured in a total volume of 100 μl culture medium (triplicates) to test the non-precipitating compounds for the anti-tubercular activity at the concentrations indicated. For these assays, 96-well flat clear bottom black polystyrene microplates (Corning® CellBIND®, Merck, New York, USA) wer e used. Each plate had Rifampicin (at 1 μg/ml and 0.1 μg/ml) (National Reference Center, Borstel) as a reference compound. Plates were sealed with an air -permeable membrane (Porvair Sciences, Wrexham, UK) in a 37 °C incubator with mild agitation (TiMix5, Edmund Bühler, Germany). The activity of compounds was determined after 7 days by measuring the bacterial growth as relative light units (RLU) from the fluorescence intensity obtained at an excitation wavelength of 575 nm and an emission wavelength of 635 n m in a microplate reader (Synergy 2, BioTek Instruments, Vermont, USA). Two independent experiments (each in triplicates) were performed, and all values were normalized to untreated control sample (100%) in each experiment.
To obtain information regarding the toxicity of our compounds, their impact on the viability of human cells was investigated. HepG2 cells (2x10^4 cells per well) were seeded in 96 -well, flat-bottomed culture plates in 100 µL culture medium (DMEM containing 10% fetal calve serum, 1% penicillin -streptomycin). Twenty-four hours after seeding the cells, medium was removed and replaced by medium containing test compounds in a final DMSO concentration of 1%. Compounds were tested in duplicates at a single concentration or, for CC50 determination, at 8 concentrations that were prepared via 2 -fold serial dilutions in 1% DMSO/medium. Epirubicin and doxorubicin were used as positive controls in serial dilutions starting from 10 µM, and rifampicin was used as a negative control (at 100 µM). The living cell mass was determined 48 h after treatment with compounds by adding 0.1 volumes of 3 -(4,5-dimethylthiazol-2-yl)-2,5-diphenyltetrazolium bromide (MTT) solution (5 mg/mL sterile PBS) (Sigma, St. Louis, MO) to the wells. After incubating the cells for 30 min at 37 °C (atmosphere containing 5% CO2), medium was removed and MTT crystals were dissolved in 75 µL of a solution containing 10% SDS and 0.5% acetic acid in DMSO. The optical density (OD) of the samples was determined photometrically at 570 nm in a PHERAstar Omega plate reader (BMG labtech, Ortenberg, Germany). To obtain percent viability for each sample, their ODs were related to those of DMSO controls. […]

MtbIspE [3] = molecular target: T1, MtbIspE; assay: MtbIspE binding study via MicroScale Thermophoresis (MST); settings: MST, 20 μM ligand, 200 nM MtbIspE, triplicate; qualitative
in vitro = settings: human, HepG2 CC50, HepG2, 48 h, MTT
MtbIspE [4] = molecular target: T1, MtbIspE; assay: MtbIspE binding study via thermal shift assay; settings: read-out: MtbIspE ΔTm at 20 μM

Structure (SMILES)	Amplification factors (DCL-3) (MtbIspE [1])	MtbH37Rv MIC90 (MtbH37Rv)	inhibition at 50 µM (EcK12) [%]	inhibition at 50 µM (EcTolC) [%]	solubility at 5 min (physchem; solubility 5% DMSO in PBS) [µM]	solubility [2] [µM]	Amplification factors (DCL-4) (MtbIspE [1])	MtbIspE binding at 20 μM (MtbIspE [3])	CC50 (in vitro) [µM]	ΔTm at 20 µM (MtbIspE [4]) [°C]	solubility at 5 min (physchem; solubility in PBS with 5% DMSO) [µM]	solubility in 7H9 [2]	amplification factor (DCL-1 at 24 h) (MtbIspE [1]; DCL-1, 24 h, 25 mol % MtbIspE)
O=C(N/N=C/c1cc(Cl)ccc1O)C12CC3CC(C1)CC(n1cnc(Cl)n1)(C3)C2 [I1, (1R,3S,5R,7S)-3-(3-Chloro-1H-1,2,4-triazol-1-yl)-N′-((Z)-5-chloro-2-hydroxybenzylidene)adamantane-1-carbohydrazide]	2.0	no inh. at max. sol.	< 10	33 ± 3	8 ± 4 (≈ 3.47 µg/mL)	64							
COc1ccc(-c2cc(/C=N/NC(=O)Cn3nc(C)cc3C)no2)cc1 [B6, (E)-2-(3,5-Dimethyl-1H-pyrazol-1-yl)-N′-((5-(4-methoxyphenyl)isoxazol-3-yl)methylene)acetohydrazide]		no inh. at max. sol.		< 10	65 ± 35 (≈ 23 µg/mL)	16	0.9	bound in two out of three measurements and 2/3	> 50	< 0.3			
COc1ccc(NC(=O)c2cc(C(=O)N/N=C/c3cc(Cl)ccc3O)n(C)n2)cc1OC [H1, (E)-5-(2-(5-Chloro-2-hydroxybenzylidene)hydrazine-1-carbonyl)-N-(3,4-dimethoxyphenyl)-1-methyl-1H-pyrazole-3-carboxamide]	7.8	no inh. at max. sol.		< 10	28 ± 6 (≈ 12.8 µg/mL)	32		No	32 ± 5	< 0.3			
CN1CCN(CC(=O)N/N=C/c2cc(Cl)ccc2O)CC1 [C1, (E)-N′-(5-Chloro-2-hydroxybenzylidene)-2-(4-methylpiperazin-1-yl)acetohydrazide]		no inh. at max. sol.	< 10	17.1 ± 0.1	> 800	16		consistently demonstrated binding across all measurements and Yes	> 50	< 0.3	~1000 (≈ 311 µg/mL)		
COc1ccc(-c2cc(/C=N/NC(=O)c3nnn(-c4cccc(C(F)(F)F)c4)c3N)no2)cc1 [E6, (E)-5-Amino-N′-((5-(4-methoxyphenyl)isoxazol-3-yl)methylene)-1-(3-(trifluoromethyl)phenyl)-1H-1,2,3-triazole-4-carbohydrazide]				< 10	29 ± 10 (≈ 13.7 µg/mL)		2.3	No	> 50	0.7		insoluble	
Nc1c(C(=O)N/N=C/c2cc(Cl)ccc2O)nnn1-c1cccc(C(F)(F)F)c1 [E1, (E)-5-Amino-N′-(5-chloro-2-hydroxybenzylidene)-1-(3-(trifluoromethyl)phenyl)-1H-1,2,3-triazole-4-carbohydrazide]				< 10	3.3 ± 1 (≈ 1.4 µg/mL)				> 50			insoluble	0.5
Nc1c(C(=O)N/N=C/c2ccc(C(F)(F)F)cc2)nnn1-c1cccc(C(F)(F)F)c1 [E4, (E)-5-Amino-N′-(4-(trifluoromethyl)benzylidene)-1-(3-(trifluoromethyl)phenyl)-1H-1,2,3-triazole-4-carbohydrazide]				< 10	12 ± 6 (≈ 5.31 µg/mL)		0.7	consistently demonstrated binding across all measurements and Yes	> 50			insoluble	
